Experimental data reported in article PMC9516381 (Biochemistry and Biophysics Reports, 2022).
Read-outs that look alike come from different tables or passages of the source.

Assays:
h2E2 anti-cocaine mAb [1] = assay: Isothermal titration calorimetry; assay type: binding; conditions: ITC, PBS, 20°C, mean ± SD of 4 experiments; for ΔG: calculated as ΔG = ΔH – TΔS; for Kd: reciprocal of fitted K
h2E2 anti-cocaine mAb [2] = conditions: intrinsic fluorescence quenching, 20 °C, TBS buffer; cited from earlier work
mAb08 anti-cocaine mAb = conditions: ITC; cited from earlier work
h2E2 Fc fragment = h2E2 Fc fragment (Homo sapiens, UniProt P01857); assay: ITC of ligand binding to h2E2 Fc fragment; conditions: PBS pH 7.4, 20°C
h2E2 Fc fragment, sequence (P01857 1-330 isoform P01857-1): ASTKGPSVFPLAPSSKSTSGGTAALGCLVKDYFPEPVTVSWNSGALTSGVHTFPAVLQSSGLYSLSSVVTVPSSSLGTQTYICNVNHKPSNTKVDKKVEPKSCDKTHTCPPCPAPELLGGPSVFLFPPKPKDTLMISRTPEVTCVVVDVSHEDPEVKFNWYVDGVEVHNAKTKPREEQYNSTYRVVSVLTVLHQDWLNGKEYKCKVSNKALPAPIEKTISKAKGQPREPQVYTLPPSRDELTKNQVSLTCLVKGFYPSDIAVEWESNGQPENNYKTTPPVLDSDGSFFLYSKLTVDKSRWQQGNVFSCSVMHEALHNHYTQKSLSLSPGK

## CN1[C@H]2CC[C@@H]1[C@@H](C(=O)O)[C@@H](OC(=O)c1ccccc1)C2 [Benzoylecgonine, benzoylecgonine]
h2E2 anti-cocaine mAb [1]
  ΔG: -9.755 ± 0.106 kcal/mol
  K (association): 1.88e+07 ± 3.26e+06 M⁻¹
  ΔH: -15.44 ± 0.833 kcal/mol
  ΔS: −19.4 ± 2.5 cal/mol/deg
  Kd: 54.4 ± 8.77 nM
h2E2 anti-cocaine mAb [1]; listed as benzoylecgonine
  ΔH: ≈ -15,400 cal/mol
h2E2 anti-cocaine mAb [2]
  Kd: ~20 nM

## CCOC(=O)[C@@H]1C2CCC(C[C@@H]1OC(=O)c1ccccc1)N2C (stereo partly drawn) [Cocaethylene, cocaethylene]
h2E2 anti-cocaine mAb [1]
  ΔG: -11.152 ± 0.302 kcal/mol
  K (association): 2.31e+08 ± 1.3e+08 M⁻¹
  ΔH: -13.988 ± 0.279 kcal/mol
  ΔS: −9.67 ± 1.98 cal/mol/deg
  Kd: 5.29 ± 2.4 nM
h2E2 anti-cocaine mAb [2]
  Kd: ~1 nM

## COC(=O)[C@H]1[C@@H](OC(=O)c2ccccc2)C[C@@H]2CC[C@H]1N2C [Cocaine, cocaine]
h2E2 anti-cocaine mAb [1]
  ΔG: -10.881 ± 0.187 kcal/mol
  K (association): 1.33e+08 ± 4.54e+07 M⁻¹
  ΔH: -15.41 ± 0.368 kcal/mol
  ΔS: −15.4 ± 1.8 cal/mol/deg
  Kd: 8.13 ± 2.37 nM
h2E2 anti-cocaine mAb [1]; listed as cocaine
  ΔH: ≈ -15,400 cal/mol
  Kd: ~8 nM
mAb08 anti-cocaine mAb
  Kd: 2.5 nM
h2E2 anti-cocaine mAb [2]
  Kd: ~4 nM

## COC(=O)[C@@H]1[C@H]2CC[C@@H](C[C@@H]1O)N2C [Ecgonine Methyl Ester, ecgonine methyl ester]
h2E2 anti-cocaine mAb [1]
  ΔG: -6.381 ± 0.247 kcal/mol
  K (association): 61375 ± 25024 M⁻¹
  ΔH: -2.336 ± 0.452 kcal/mol
  ΔS: 13.80 ± 2.33 cal/mol/deg
  Kd: 18700 ± 8310 nM
h2E2 Fc fragment
  binding to the Fc fragment: no EME binding to the Fc fragment

## COC(=O)[C@H]1[C@@H](OC(=O)c2ccccc2)C[C@@H]2CC[C@H]1N2 [Norcocaine, norcocaine]
h2E2 anti-cocaine mAb [1]
  ΔG: -7.85 ± 0.027 kcal/mol
  K (association): 704500 ± 36098 M⁻¹
  ΔH: -3.064 ± 0.15 kcal/mol
  ΔS: 16.3 ± 0.58 cal/mol/deg
  Kd: 1420 ± 72 nM
